Assay results from paper PMC10529912 (European journal of medicinal chemistry, 2023).
Like-named read-outs stand apart in the source and are kept apart here.

Assays:
[1] = target: SARS-CoV-2 main protease (Mpro) (Severe acute respiratory syndrome coronavirus 2, UniProt P0DTD1); assay: SARS-CoV-2 Mpro FRET enzymatic assay; assay type: biochemical
SARS-CoV-2 Mpro = SARS-CoV-2 Mpro (Severe acute respiratory syndrome coronavirus 2, UniProt P0DTD1); assay: Mpro enzyme kinetics, Morrison plot Ki determination; assay type: biochemical
[2] = system: SARS-CoV-2 (isolate USA WA1/2020); assay type: cell-based; conditions: read-out: EC50 (antiviral); Calu-3 cells, MOI 0.5, 48 hours

Compound | IC50 [1] [nM] | further results
C#CC(=O)N(c1ccc(-c2ccccc2)cc1)C(C(=O)N[C@@H](C)c1ccccc1)c1cccnc1 (stereo partly drawn) [Jun10221R, N-([1,1’-biphenyl]-4-yl)-N-((S)-2-oxo-2-(((S)-1-phenylethyl)amino)-1-(pyridin-3-yl)ethyl)propiolamide] | 20 | 
CCCC#CC(=O)N(c1ccc(-c2ccccc2)cc1)C(C(=O)N[C@@H](C)c1ccccc1)c1cccnc1 (stereo partly drawn) [Jun10923, N-([1,1’-biphenyl]-4-yl)-N-(2-oxo-2-(((S)-1-phenylethyl)amino)-1-(pyridin-3-yl)ethyl)hex-2-ynamide] | 2510 | 
C[C@H](NC(=O)C(c1cccnc1)N(C(=O)C#CC(C)(C)C)c1ccc(-c2ccccc2)cc1)c1ccccc1 (stereo partly drawn) [Jun10925, N-([1,1’-biphenyl]-4-yl)-4,4-dimethyl-N-(2-oxo-2-(((S)-1-phenylethyl)amino)-1-(pyridin-3-yl)ethyl)pent-2-ynamide] | > 20000 | 
COc1ccc(/C=C(\C#N)C(=O)N(c2ccc(-c3ccccc3)cc2)C(C(=O)N[C@@H](C)c2ccccc2)c2cccnc2)cc1 (stereo partly drawn) [Jun10963R, (E)-N-([1,1’-biphenyl]-4-yl)-2-cyano-3-(4-methoxyphenyl)-N-((S)-2-oxo-2-(((S)-1-phenylethyl)amino)-1-(pyridin-3-yl)ethyl)acrylamide] | 560 | Ki (SARS-CoV-2 Mpro): 573 nM
COc1ccc(/C=C(\C#N)C(=O)N(c2ccc(-c3ccccc3)cc2)C(C(=O)N[C@@H](C)c2ccccc2)c2cccnc2)cc1 (stereo partly drawn) [Jun10963S, (E)-N-([1,1’-biphenyl]-4-yl)-2-cyano-3-(4-methoxyphenyl)-N-((R)-2-oxo-2-(((S)-1-phenylethyl)amino)-1-(pyridin-3-yl)ethyl)acrylamide] | > 20000 | 
N-([1,1’-biphenyl]-4-yl)-2-cyano-N-((S)-2-oxo-2-(((S)-1-phenylethyl)amino)-1-(pyridin-3-yl)ethyl)acetamide [Jun10541R] |  | Ki (SARS-CoV-2 Mpro; Morrison equation fit, 20 μM FRET substrate, no preincubation): 345 nM; EC50 [2]: 2920 nM; cytotoxicity to Calu-3 cells (Calu-3 cells): not cytotoxic
